In patent US7709600B2, “Interaction between the VHL tumor suppressor and hypoxia inducible factor, and assay methods relating thereto” (Isis Innovation Limited, priority 1999, dated 2010):
Where two headings read alike, the source gives them in different places.

Experiments:
HIF-1α = assay: In vitro ubiquitylation assay for HIF-1α; assay type: biochemical, human
Method: To test the hypothesis that pVHL is a necessary component of a ubiquitin ligase complex recognising HIF-α we developed an in vitro ubiquitylation assay for HIF-1α. In this assay, cell extracts (initially from Cos-7) were incubated with [^35S]labelled HIF-1α prepared in vitro in reticulocyte lysates. This was used as substrate in reactions with different combinations of extract, an ATP-regenerating system, ubiquitin aldehyde, and methylated ubiquitin. Reactions were incubated at 30° C. for 270 minutes before analysis by SDS-PAGE.
Incubation with extract alone converted the HIF-1α substrate to a slower migrating form, an effect which was enhanced by an ATP-regenerating system, and was prevented by addition of the protein kinase inhibitor 2-aminopurine. […] This assignment was confirmed by enhancement with addition of ubiquitin aldehyde, an isopeptidase inhibitor that prevents the breakdown of ubiquitin conjugates.
An experiment similar to that of section (h) above was performed but with the omission of ubiquitin aldehyde. pVHL was generated by in vitro transcription translation, and HIF-1α was also generated in reticulocyte lysate in the presence or absence of 100 μM Fe2+ and Fe3+. […] Thus assays of the invention may be used for the identification of compounds acting at a point distal to the HIF-pVHL interaction (i.e. not altering binding but interfering with tagging or destruction). It also provides further evidence for modifications of HIF influencing its ability to bind pVHL. […]
In vitro ubiquitylation assay. […] Aliquots were removed at indicated times, mixed with SDS sample buffer and analysed by SDS-PAGE and autoradiography. Gels were quantitated using a Storm 840 PhosphorImager (Molecular Dynamics).

pVHL/HIF-1 complex = pVHL/HIF-1 complex (Homo sapiens, UniProt P40337+Q16665); assay: EMSA / anti-pVHL supershift of the HIF-1 DNA binding complex from treated RCC4/VHL cells; conditions: for HIF-1 complex species seen in EMSA: RCC4/VHL cells cultured four hours, 100 μM
[1] = test system: pVHL interaction with HIF-1α and HIF-2α; assay: Anti-pVHL immunoprecipitation of RCC4/VHL cell extracts, immunoblot for HIF α subunits; conditions: treated RCC4/VHL cells, compared with hypoxic cells
pVHL-HIF-1α interaction [2] = target: pVHL-HIF-1α interaction (Homo sapiens, UniProt P40337+Q16665); assay: pVHL interaction with HIF-1α sequences translated in reticulocyte lysate in the presence of metal ions; assay type: binding
pVHL-HIF-1α interaction [3] = assay: as above; assay type: binding, human; conditions: subsequences 556-574, 549-574, 556-582, 549-582; 100 μM Fe2+ and 100 μM Fe3+
[4] = full HIF-1α, 100 μM ion during translation

Compound: ubiquitin aldehyde
- generation of high molecular weight polyubiquitylated HIF-1α species (HIF-1α; Cos-7 cell extract, 30° C., 270 minutes): enhancement

Compound: [Cl-].[Cl-].[Co+2] [cobalt, cobaltous chloride]
- HIF-1 complex species seen in EMSA (pVHL/HIF-1 complex): only the faster mobility HIF-1 complex
- HIF-1α and HIF-2α contained in anti-pVHL immunoprecipitates [1]: neither protein was contained
- interaction of pVHL with HIF-1α translated in the presence of the ion (pVHL-HIF-1α interaction [2]; [4]): diminishes

Compound: [Ni+2] [nickel]
- interaction of pVHL with HIF-1α translated in the presence of the ion (pVHL-HIF-1α interaction [2]): diminishes

Compound: Nc1ncc2[nH]cnc2n1 [2-aminopurine]
- conversion of HIF-1α substrate to a slower migrating form (phosphorylation) (HIF-1α; Cos-7 cell extract, 30° C.): prevented

Compound: CC(=O)N(O)CCCCCNC(=O)CCC(=O)N(O)CCCCCNC(=O)CCC(=O)N(O)CCCCCN [desferrioxamine]
- HIF-1 complex species seen in EMSA (pVHL/HIF-1 complex): only the faster mobility HIF-1 complex
- pVHL/HIF-1 complex forming (pVHL/HIF-1 complex; treatment four hours prior to hypoxia): prevented
- HIF-1α and HIF-2α contained in anti-pVHL immunoprecipitates [1]: neither protein was contained

Compound: iron
- ubiquitylation of HIF-1α produced in the presence of the ions (HIF-1α; HIF-1α generated in reticulocyte lysate with 100 μM Fe2+ and Fe3+, ubiquitin aldehyde omitted): Enhanced ubiquitylation
- amount of interaction of pVHL with HIF-1 subsequences (pVHL-HIF-1α interaction [3]): substantial increase
- interaction of pVHL with HIF-1α translated in the presence of the ion (pVHL-HIF-1α interaction [2]; [4]): enhances
